The results in this text go back to patent US9382244B2, “7-azaindole-2,7-naphthyridine derivative for the treatment of tumours” (Merck Patent GmbH, priority 2012, dated 2016).

Molecules are shown by their SMILES.

As usually defined, the IC50 is the point on the concentration scale where inhibition reaches its midpoint.

For assay [1], the target named is T1, TGF-beta kinase ALK5 (GST-ALK5) (Homo sapiens, UniProt P36897).
T1 sequence (P36897 34-503): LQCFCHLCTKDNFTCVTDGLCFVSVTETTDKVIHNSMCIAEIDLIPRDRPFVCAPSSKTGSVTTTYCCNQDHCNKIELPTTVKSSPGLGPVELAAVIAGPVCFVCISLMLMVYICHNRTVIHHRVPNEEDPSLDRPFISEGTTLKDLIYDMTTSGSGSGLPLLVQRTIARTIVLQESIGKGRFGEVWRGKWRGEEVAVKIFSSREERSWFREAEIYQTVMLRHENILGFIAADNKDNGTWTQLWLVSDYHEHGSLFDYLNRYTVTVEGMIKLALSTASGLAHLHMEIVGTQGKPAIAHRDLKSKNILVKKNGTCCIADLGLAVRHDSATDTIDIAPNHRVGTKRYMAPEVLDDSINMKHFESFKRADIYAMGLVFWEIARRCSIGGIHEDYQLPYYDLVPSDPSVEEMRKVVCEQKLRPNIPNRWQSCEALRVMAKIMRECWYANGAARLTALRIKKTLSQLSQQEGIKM
The assay is described as follows: Test for the inhibition of ALK-5 (flashplate kinase assay). Type of assay: biochemical. Particulars: enzymatic; GST-ALK5, GST-SMAD2 substrate; read-out: IC50 [nM] [TGF-beta] enzym. ALK5. The protocol: Test for the Inhibition of ALK-5
The experimental batches are carried out in a flashplate system with 384 wells/microtitre plate.
In each case, 31.2 nM of GST-ALK5, 439 nM of GST-SMAD2 and 3 mM of ATP (with 0.3 μCi of 33P-ATP/well) in a total volume of 35 μl of buffer (20 mM HEPES, 10 mM MgCl2, 5 mM MnCl2, 1 mM DTT, 0.1% of BSA, pH 7.4) per well are incubated without or with test substance at 5 to 10 different concentrations at 30 C for 45 min. The reaction is stopped using 25 μl of 200 mM EDTA solution and filtered off with suction after 30 min at room temperature.
The wells are washed 3 times with 100 μl of 0.9% aqueous NaCl solution, and the residual radioactivity is measured in a TopCount instrument (Perkin-Elmer). The IC50 values are calculated using the RS1 software.
The radioactivity (decompositions per minute) of the blank value (no use of test substance in the presence of 100 nM staurosporine) is subtracted from all other radioactivity values. The controls (kinase activity without test substance) are set equal to 100 percent and all other radioactivity values (after subtracting the blank value) are expressed set in relation thereto (for example in % of the control).
IC50 values (concentration of the test substance at 50% inhibition) are determined with the aid of statistics programmes, such as, for example, RS1.

Assay [2] deals with TGF-beta-mediated growth inhibition, lung epithelial cell line Mv1Lu. The experiment in a line: Cellular TGF-beta assay: elimination of TGF-beta-mediated growth inhibition. Type of assay: cell-based. The protocol: In-Vitro (Enzyme) Assay for Determination of the Efficacy of the Inhibitors of the Inhibition of TGF-Beta-Mediated Effects
As an example, the ability of the inhibitors to eliminate TGF-beta-mediated growth inhibition is tested.
Cells of the lung epithelial cell line Mv1Lu are sown in a defined cell density in a 96-well microtitre plate and cultivated overnight under standard conditions. Next day, the medium is replaced by medium which comprises 0.5% of FCS and 1 ng/ml of TGF-beta, and the test substances are added in defined concentrations, generally in the form of dilution series with 5-fold steps. The concentration of the solvent DMSO is constant at 0.5%. After a further two days, Crystal Violet staining of the cells is carried out. After extraction of the Crystal Violet from the fixed cells, the absorption is measured spectrophotometrically at 550 nm. It can be used as a quantitative measure of the adherent cells present and thus of the cell proliferation during the culture.

The next assay addresses T2, Human ALK1 (Homo sapiens, UniProt P37023).
T2 construct: purchased ALK1
The assay is described as follows: Test for the inhibition of ALK-1. Particulars: Human ALK1, casein substrate, ATP 10 μM. Type of assay: biochemical. The protocol: Test for the Inhibition of ALK-1
(Serine/threonine-protein kinase receptor R3, activin receptor-like kinase 1, ALK-1, TGF-B superfamily receptor type I, TSR-I, SKR3, ACVRLK1)
Substrate: Casein, 20 mg/ml

T2 sequence (P37023 22-503): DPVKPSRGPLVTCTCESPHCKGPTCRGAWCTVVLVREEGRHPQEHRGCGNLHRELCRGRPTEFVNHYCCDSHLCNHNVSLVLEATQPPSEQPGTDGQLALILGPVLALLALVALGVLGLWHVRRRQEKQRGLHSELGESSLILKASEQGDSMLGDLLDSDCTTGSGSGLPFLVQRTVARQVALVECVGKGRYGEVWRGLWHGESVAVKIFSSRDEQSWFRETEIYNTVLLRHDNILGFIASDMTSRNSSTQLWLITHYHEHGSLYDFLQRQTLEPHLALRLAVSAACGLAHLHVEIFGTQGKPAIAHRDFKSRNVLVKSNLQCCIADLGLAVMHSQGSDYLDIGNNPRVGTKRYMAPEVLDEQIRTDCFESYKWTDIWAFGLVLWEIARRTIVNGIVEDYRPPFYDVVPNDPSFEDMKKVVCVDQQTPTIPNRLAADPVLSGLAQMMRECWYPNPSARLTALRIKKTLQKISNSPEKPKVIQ

As for `Nc1nccc2c(-c3c[nH]c4ncccc34)nccc12` [Compound A32], the 50% inhibitory concentration (IC50) came out at 43 nM in assay [1] and 770 nM in assay [2].

For the molecule `Nc1ncc(-c2c[nH]c3ncccc23)c2ccncc12` [Compound A24], the IC50 worked out at 13 nM in assay [1] and 72 nM in assay [2].

For `Cc1[nH]c2ncccc2c1-c1nccc2c(N)nccc12` [Compound A13], the half-maximal inhibitory concentration (IC50) in assay [1] was determined as 16 nM; at Human ALK1, 200 nM; in assay [2], 160 nM.

`Cc1[nH]c2ncccc2c1-c1cnc(N)c2cnccc12` [4-(2-methyl-1H-pyrrolo[2,3-b]pyridin-3-yl)-2,7-naphthyridin-1-ylamine]: the figures for the half-maximal inhibitory concentration (IC50) (in assay [1]; against Human ALK1; in assay [2]) were 4.6 nM, 79 nM and 28 nM, respectively.
